Patent US20080108611A1, “SUBSTITUTED THIENOPYRIMIDINE KINASE INHIBITORS” (priority 2006, published 2008)

How the values were obtained:
Aurora-A = target: T1, Aurora-A (Mus musculus, UniProt P97477); test: Aurora-A Screening Assay; type: biochemical; settings: murine Aurora-A full length, 10 μM ATP
T1 construct: followed by the full length protein encoding the murine Aurora-A; polyhistidine (N); made in house; host or cells: Sf9 insect cells
T1 sequence (P97477 1-395): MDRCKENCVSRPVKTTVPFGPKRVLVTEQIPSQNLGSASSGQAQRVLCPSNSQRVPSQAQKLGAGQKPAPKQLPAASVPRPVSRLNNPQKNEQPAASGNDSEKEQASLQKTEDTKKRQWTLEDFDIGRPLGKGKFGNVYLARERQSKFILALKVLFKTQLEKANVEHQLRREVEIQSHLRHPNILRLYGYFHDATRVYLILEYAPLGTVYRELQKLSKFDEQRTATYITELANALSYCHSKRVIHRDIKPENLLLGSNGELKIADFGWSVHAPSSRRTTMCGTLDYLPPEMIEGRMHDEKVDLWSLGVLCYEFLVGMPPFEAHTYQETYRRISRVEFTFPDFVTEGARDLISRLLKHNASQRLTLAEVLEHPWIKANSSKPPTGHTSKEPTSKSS
Protocol: A kinase reaction mixture was prepared containing 50 mM Tris-HCl at pH 8, 10 mM MgCl2, 0.1 mM Na3PO4, 1 mM DTT, 10 μM ATP, 0.025 μM biotinylated histone-H1 peptide substrate and 0.2 μCuries per well ^33P-γ-ATP (2000-3000 Ci/mmol). 70 μL of the kinase reaction mixture was dispensed into the well of a Streptavidin FlashPlate.
Test compound stock in 100% DMSO (1 μL) was added to the wells resulting in a final concentration of 1% DMSO in the reaction with a 100 μL final reaction volume. Each enzyme was diluted in 50 mM Tris-HCl pH=8.0, 0.1% BSA and 30 μL was added to each well to initiate the reaction. The reaction was incubated for one hour at 30° C. At the end of the 1 hr incubation, the reaction was terminated by aspirating the mixture from the plate and washing the wells twice with PBS containing 100 mM EDTA. The biotinylated peptide substrate became immobilized on the Flashplate™ and the incorporation of ^33P-γ-ATP was measured by reading the plate on a scintillation counter. Inhibition of the enzymatic activity was measured by observing a reduced amount of ^33P-γ-ATP incorporated into the immobilized peptide.
Aurora-A is a fusion protein containing a polyhistidine tag at the N terminus followed by the full length protein encoding the murine Aurora-A (Accession number GB BC014711) expressed and purified from sf9 insect cells. The assay used 400 ng of the N-terminal biotinylated peptide biotin-GRTGRRNSI-amide (Aurora-A) per well.
The IC50 was derived according to the procedure described in Example 1.

Lyn kinase = target: T2, Lyn kinase (Homo sapiens, UniProt P07948); test: Lyn Kinase Assay; type: biochemical; settings: test concentration of 2 μM; read-out: Lyn Inhibition (%) Inh
T2 construct: purchased Upstate Biotechnology, Lake Placid, N.Y
Protocol: A mixture of a 10× kinase buffer (500 mM MOPS at pH 7.5, 1 mM EGTA, 1 mM Sodium Vanadate, 1% β-mercaptoethanol and 100 mM Magnesium Acetate), ATP (5 μM final from a 10 mM stock), polyGluTyr (0.1 mg/mL final from a 1 mg/mL stock), γ-^33P ATP (10 μCi/μL stock) and water (20 μL/well) was added to each well of a Streptavidin Flashplate.
Test compound in 100% DMSO (0.5 μL) was added to the appropriate wells. Diluted Lyn kinase (human) (Upstate Biotechnology, Lake Placid, N.Y.) (diluted in a buffer consisting of 50 mM Tris at pH 7.5, 0.1 mM EGTA, Sodium Vanadate (0.1 mM), 13-mercaptoethanol (0.1%) and 1 mg/mL bovine serum albumin) (2.5 μL) was added to the wells to initiate the reactions.
The reaction plates were incubated at 30° C. for 40 min. The reaction was terminated by the addition of a 3% phosphoric acid solution (5 μL). The reaction product (10 μL) was spotted onto a P30 filtermat and washed for 5 minutes in phosphoric acid (75 mM). The wash sequence was repeated two more times, followed with one final wash in methanol. The plates were then dried, sealed and read on the TopCount scintillation counter after adding 30 μL scintillation fluid. Percent inhibition was derived according to the procedure described in Example 1. The percent inhibition results are shown in Table 4 at a test concentration of 2 μM.

A375 malignant melanoma = test: Cell Proliferation Inhibition Assay (14C-thymidine incorporation), A375; type: cell-based; settings: Homo sapiens, A-375; A375 cells
Protocol: (§1) The ability of a test compound to inhibit unregulated cell proliferation was determined by measuring incorporation of ^14C-labelled thymidine into newly synthesized DNA within cell lines derived from carcinomas originating from several tissues. Accordingly, the anti-proliferative effect of a compound on cells with a variety of phenotypes may be determined.
(§2) Carcinoma cell lines include those such as HeLa cervical adenocarcinoma (American Type Culture Collection (ATCC), Virginia, Cat. #CCL-2), A375 malignant melanoma (ATCC CRL-1619), SK-OV-3 ovarian adenocarcinoma (ATCC HTB-77), HCT-116 colon carcinoma (CCL-247), PC-3 prostate adenocarcinoma (ATCC CRL-1435), and MDA-MB-231 (Xenogen Corp.)
(§3) The carcinoma cells were trypsinized and counted. The cells (3000-8000 count) were added to each well of a 96-well CytoStar tissue culture treated scintillating microplate (Amersham #RPNQ0160) in complete medium (100 μL) and the plate was then incubated in complete medium for 24 hrs at 37° C. in an […] atmosphere containing 5% CO2. Test compound (1 μL) in 100% DMSO was added to the plate test-wells with DMSO only added to control-wells. The plate was incubated in complete medium for a second 24 hr period at 37° C. in an atmosphere containing 5% CO2.
(§4) An aliquot of a solution of methyl ^14C-thymidine (56 mC/mmol) (NEN #NEC568 or Amersham #CFA532) and complete medium (20 uL to provide 0.2 μCi/well) was then added to each well and the plate was incubated for a third 24 hr period at 37° C. in an atmosphere containing 5% CO2. The plate contents were then discarded, the plate was washed twice with PBS (200 μL) and then PBS (200 μL) was added to each well. The plate was sealed and the degree of methyl ^14C-thymidine incorporation was quantified on a Packard Top Count.

HCT-116 colon carcinoma = test: Cell Proliferation Inhibition Assay (14C-thymidine incorporation), HCT116; type: cell-based; settings: Homo sapiens, HCT116 cells
Protocol: as §1, §2, §3, §4

T2 sequence (P07948 whole entry): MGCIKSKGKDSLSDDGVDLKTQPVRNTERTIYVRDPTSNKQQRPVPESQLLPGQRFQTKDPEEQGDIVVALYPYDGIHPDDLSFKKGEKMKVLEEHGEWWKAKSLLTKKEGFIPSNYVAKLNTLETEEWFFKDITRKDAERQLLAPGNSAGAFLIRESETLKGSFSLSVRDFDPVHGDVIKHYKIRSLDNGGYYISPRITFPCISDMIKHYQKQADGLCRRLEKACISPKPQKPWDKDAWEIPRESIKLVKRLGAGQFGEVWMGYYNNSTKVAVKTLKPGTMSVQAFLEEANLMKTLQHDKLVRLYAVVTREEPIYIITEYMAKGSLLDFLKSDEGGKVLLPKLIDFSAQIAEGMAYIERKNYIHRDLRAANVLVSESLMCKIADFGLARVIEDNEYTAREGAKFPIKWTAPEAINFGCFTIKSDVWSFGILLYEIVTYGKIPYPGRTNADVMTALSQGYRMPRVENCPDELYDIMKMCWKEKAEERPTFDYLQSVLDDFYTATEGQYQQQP

For `Cc1cc2c(F)c(Oc3ncnc4sc(C(=O)NCCN5CCCCC5)c(C)c34)ccc2[nH]1` [Cpd 21, 4-(4-fluoro-2-methyl-1H-indol-5-yloxy)-5-methyl-thieno[2,3-d]pyrimidine-6-carboxylic acid (2-piperidin-1-yl-ethyl)-amide], the IC50 (Aurora-A) was > 100 µM, the inhibition at 2 µM (Lyn kinase) was 8% and the IC50 (A375 malignant melanoma) was 1.5 µM. It also gave an IC50 (HCT-116 colon carcinoma) of 9.4 µM.

In the case of `COCCNC(=O)c1sc2ncnc(Oc3ccc4[nH]c(C)cc4c3F)c2c1C` [Cpd 27, 4-(4-fluoro-2-methyl-1H-indol-5-yloxy)-5-methyl-thieno[2,3-d]pyrimidine-6-carboxylic acid (2-methoxy-ethyl)-amide], the IC50 (Aurora-A) is reported as > 10 µM, the inhibition at 2 µM (Lyn kinase) is reported as 23% and the IC50 (A375 malignant melanoma) is reported as > 10 µM. The IC50 (HCT-116 colon carcinoma) was > 10 µM.

In the case of `Cc1c(C(=O)Nc2ccc(CN3CCOCC3)cc2)sc2ncnc(Nc3ccc(Oc4ccccc4)cc3)c12` [Cpd 23, 5-methyl-4-(4-phenoxy-phenylamino)-thieno[2,3-d]pyrimidine-6-carboxylic acid (4-morpholin-4-ylmethyl-phenyl)-amide], the IC50 (Aurora-A) is reported as > 100 µM, the inhibition at 2 µM (Lyn kinase) is reported as 9% and the IC50 (A375 malignant melanoma) is reported as 2.9 µM. It also gave an IC50 (HCT-116 colon carcinoma) of 7.1 µM.

`Cc1cc2c(F)c(Oc3ncnc4sc(C(=O)NCCN5CCOCC5)c(C)c34)ccc2[nH]1` [Cpd 19, 4-(4-fluoro-2-methyl-1H-indol-5-yloxy)-5-methyl-thieno[2,3-d]pyrimidine-6-carboxylic acid (2-morpholin-4-yl-ethyl)-amide] was tested, and the IC50 (Aurora-A) was > 100 µM, the inhibition at 2 µM (Lyn kinase) was 16% and the IC50 (A375 malignant melanoma) was > 10 µM. The IC50 (HCT-116 colon carcinoma) was > 10 µM.

In the case of `Cc1c(C(=O)NCCN2CCOCC2)sc2ncnc(Nc3ccc(Oc4ccccc4)cc3)c12` [Cpd 24], the IC50 (Aurora-A) is reported as > 100 µM, the inhibition at 2 µM (Lyn kinase) is reported as 23% and the IC50 (A375 malignant melanoma) is reported as > 10 µM. The IC50 (HCT-116 colon carcinoma) was > 10 µM.

`Cc1cc2c(F)c(Oc3ncnc4sc(C(=O)Nc5ccc(CN6CCOCC6)cc5)c(C)c34)ccc2[nH]1` [Cpd 20, 4-(4-fluoro-2-methyl-1H-indol-5-yloxy)-5-methyl-thieno[2,3-d]pyrimidine-6-carboxylic acid (4-morpholin-4-ylmethyl-phenyl)-amide] was tested, and the IC50 (Aurora-A) was > 100 µM, the inhibition at 2 µM (Lyn kinase) was 20% and the IC50 (A375 malignant melanoma) was > 10 µM. For the same compound, the IC50 (HCT-116 colon carcinoma) was > 10 µM.

In the case of `Cc1cc2c(F)c(Oc3ncnc4sc(C(=O)NCCN5CCCC5)c(C)c34)ccc2[nH]1` [Cpd 22, 4-(4-fluoro-2-methyl-1H-indol-5-yloxy)-5-methyl-thieno[2,3-d]pyrimidine-6-carboxylic acid (2-pyrrolidin-1-yl-ethyl)-amide], the IC50 (Aurora-A) is reported as > 100 µM, the inhibition at 2 µM (Lyn kinase) is reported as -2% and the IC50 (A375 malignant melanoma) is reported as 2.2 µM. The IC50 (HCT-116 colon carcinoma) was 22.3 µM.
